In PubChem BioAssay (NCI):
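Results reflect a 48-hour exposure of cells in 96-well plates to compound at five concentrations. At the TGI there is no net growth.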 The source made the active and inactive calls. Cut-off read from the data, not from the text of the source: active = GI50 below about 0.43 µM; inactive = the rest.

Experiments:
Assay in all cases: growth of human tumour cells (NCI), 48 h
786-0 renal = test system: 786-0 renal
A498 renal = test system: A498 renal
A549 NSCLC = test system: A549 NSCLC
ACHN renal = test system: ACHN renal
CAKI-1 renal = test system: CAKI-1 renal
CCRF-CEM leukemia = test system: CCRF-CEM leukemia
COLO 205 colon = test system: COLO 205 colon
DLD-1 colon = test system: DLD-1 colon
DMS 114 small cell lung = test system: DMS 114 small cell lung
DMS 273 small cell lung = test system: DMS 273 small cell lung
DU-145 prostate = test system: DU-145 prostate
EKVX NSCLC = test system: EKVX NSCLC
HCC-2998 colon = test system: HCC-2998 colon
HCT-116 colon = test system: HCT-116 colon
HCT-15 colon = test system: HCT-15 colon
HL-60(TB) leukemia = test system: HL-60(TB) leukemia
HOP-62 NSCLC = test system: HOP-62 NSCLC
HOP-92 NSCLC = test system: HOP-92 NSCLC
HT29 colon = test system: HT29 colon
IGROV1 ovarian = test system: IGROV1 ovarian
K-562 leukemia = test system: K-562 leukemia
KM12 colon = test system: KM12 colon
KM20L2 colon = test system: KM20L2 colon
LOX IMVI melanoma = test system: LOX IMVI melanoma
LXFL 529 NSCLC = test system: LXFL 529 NSCLC
M14 melanoma = test system: M14 melanoma
M19-MEL melanoma = test system: M19-MEL melanoma
MALME-3M melanoma = test system: MALME-3M melanoma
MCF7 breast = test system: MCF7 breast
MDA-MB-231 breast = test system: MDA-MB-231 breast
MDA-MB-435 = test system: MDA-MB-435
MDA-N = test system: MDA-N
MOLT-4 leukemia = test system: MOLT-4 leukemia
NCI-H226 lung = test system: NCI-H226 lung
NCI-H23 lung = test system: NCI-H23 lung
NCI-H460 lung = test system: NCI-H460 lung
NCI-H522 lung = test system: NCI-H522 lung
NCI/ADR-RES ovarian = test system: NCI/ADR-RES ovarian
OVCAR-3 ovarian = test system: OVCAR-3 ovarian
OVCAR-4 ovarian = test system: OVCAR-4 ovarian
OVCAR-5 ovarian = test system: OVCAR-5 ovarian
OVCAR-8 ovarian = test system: OVCAR-8 ovarian
PC-3 prostate = test system: PC-3 prostate
RPMI-8226 leukemia = test system: RPMI-8226 leukemia
RXF 393 renal = test system: RXF 393 renal
SF-268 CNS = test system: SF-268 CNS
SF-295 CNS = test system: SF-295 CNS
SF-539 CNS = test system: SF-539 CNS
SK-MEL-2 melanoma = test system: SK-MEL-2 melanoma
SK-MEL-28 melanoma = test system: SK-MEL-28 melanoma
SK-MEL-5 melanoma = test system: SK-MEL-5 melanoma
SK-OV-3 ovarian = test system: SK-OV-3 ovarian
SN12C renal = test system: SN12C renal
SNB-19 CNS = test system: SNB-19 CNS
SNB-75 CNS = test system: SNB-75 CNS
SNB-78 CNS = test system: SNB-78 CNS
SR leukemia = test system: SR leukemia
SW-620 colon = test system: SW-620 colon
T-47D breast = test system: T-47D breast
TK-10 renal = test system: TK-10 renal
U251 CNS = test system: U251 CNS
UACC-257 melanoma = test system: UACC-257 melanoma
UACC-62 melanoma = test system: UACC-62 melanoma
UO-31 renal = test system: UO-31 renal

## Nc1ncnc2c1ncn2C1CC(O)C(CO)O1 (stereo unspecified)
786-0 renal
  TGI: > 100 µM
A498 renal
  TGI: > 100 µM
A549 NSCLC
  TGI: > 100 µM
ACHN renal
  TGI: > 100 µM
CAKI-1 renal
  TGI: > 100 µM
CCRF-CEM leukemia
  TGI: > 100 µM
COLO 205 colon
  TGI: > 100 µM
DLD-1 colon
  TGI: > 100 µM
DMS 114 small cell lung
  TGI: > 100 µM
DMS 273 small cell lung
  TGI: > 100 µM
DU-145 prostate
  TGI: > 100 µM
EKVX NSCLC
  TGI: > 100 µM
HCC-2998 colon
  TGI: > 100 µM
HCT-116 colon
  TGI: > 100 µM
HCT-15 colon
  TGI: > 100 µM
HL-60(TB) leukemia
  TGI: > 100 µM
HOP-62 NSCLC
  TGI: > 100 µM
HOP-92 NSCLC
  TGI: > 100 µM
HT29 colon
  TGI: > 100 µM
IGROV1 ovarian
  TGI: > 100 µM
K-562 leukemia
  TGI: > 100 µM
KM12 colon
  TGI: > 100 µM
KM20L2 colon
  TGI: > 100 µM
LOX IMVI melanoma
  TGI: > 100 µM
LXFL 529 NSCLC
  TGI: > 100 µM
M14 melanoma
  TGI: > 100 µM
M19-MEL melanoma
  TGI: > 100 µM
MALME-3M melanoma
  TGI: > 100 µM
MCF7 breast
  TGI: > 100 µM
MDA-MB-231 breast
  TGI: > 100 µM
MDA-MB-435
  TGI: > 100 µM
MDA-N
  TGI: > 100 µM
MOLT-4 leukemia
  TGI: > 100 µM
NCI-H226 lung
  TGI: > 100 µM
NCI-H23 lung
  TGI: > 100 µM
NCI-H460 lung
  TGI: > 100 µM
NCI-H522 lung
  TGI: > 100 µM
NCI/ADR-RES ovarian
  TGI: > 100 µM
OVCAR-3 ovarian
  TGI: > 100 µM
OVCAR-4 ovarian
  TGI: > 100 µM
OVCAR-5 ovarian
  TGI: > 100 µM
OVCAR-8 ovarian
  TGI: > 100 µM
PC-3 prostate
  TGI: > 100 µM
RPMI-8226 leukemia
  TGI: > 100 µM
RXF 393 renal
  TGI: > 100 µM
SF-268 CNS
  TGI: > 100 µM
SF-295 CNS
  TGI: > 100 µM
SF-539 CNS
  TGI: > 100 µM
SK-MEL-2 melanoma
  TGI: > 100 µM
SK-MEL-28 melanoma
  TGI: > 100 µM
SK-MEL-5 melanoma
  TGI: > 100 µM
SK-OV-3 ovarian
  TGI: > 100 µM
SN12C renal
  TGI: > 100 µM
SNB-19 CNS
  TGI: > 100 µM
SNB-75 CNS
  TGI: > 100 µM
SNB-78 CNS
  TGI: > 100 µM
SR leukemia
  TGI: > 100 µM
SW-620 colon
  TGI: > 100 µM
T-47D breast
  TGI: > 100 µM
TK-10 renal
  TGI: > 100 µM
U251 CNS
  TGI: > 100 µM
UACC-257 melanoma
  TGI: > 100 µM
UACC-62 melanoma
  TGI: > 100 µM
UO-31 renal
  TGI: > 100 µM

## O=C1CC2CC(O1)[C@H]1O[C@H]1C2 (stereo partly specified)
786-0 renal
  outcome: inactive
A549 NSCLC
  outcome: inactive
ACHN renal
  outcome: inactive
CAKI-1 renal
  outcome: inactive
CCRF-CEM leukemia
  outcome: inactive
COLO 205 colon
  outcome: inactive
DLD-1 colon
  outcome: inactive
DMS 114 small cell lung
  outcome: inactive
DMS 273 small cell lung
  outcome: inactive
EKVX NSCLC
  outcome: inactive
HCC-2998 colon
  outcome: inactive
HCT-116 colon
  outcome: inactive
HCT-15 colon
  outcome: inactive
HL-60(TB) leukemia
  outcome: inactive
HOP-62 NSCLC
  outcome: inactive
HOP-92 NSCLC
  outcome: inactive
HT29 colon
  outcome: inactive
IGROV1 ovarian
  outcome: inactive
K-562 leukemia
  outcome: inactive
KM12 colon
  outcome: inactive
KM20L2 colon
  outcome: inactive
LOX IMVI melanoma
  outcome: inactive
LXFL 529 NSCLC
  outcome: inactive
M14 melanoma
  outcome: inactive
M19-MEL melanoma
  outcome: inactive
MALME-3M melanoma
  outcome: inactive
MOLT-4 leukemia
  outcome: inactive
NCI-H226 lung
  outcome: inactive
NCI-H23 lung
  outcome: inactive
NCI-H460 lung
  outcome: inactive
NCI-H522 lung
  outcome: inactive
OVCAR-3 ovarian
  outcome: inactive
OVCAR-4 ovarian
  outcome: inactive
OVCAR-5 ovarian
  outcome: inactive
OVCAR-8 ovarian
  outcome: inactive
RPMI-8226 leukemia
  outcome: inactive
RXF 393 renal
  outcome: inactive
SF-268 CNS
  outcome: inactive
SF-295 CNS
  outcome: inactive
SF-539 CNS
  outcome: inactive
SK-MEL-2 melanoma
  outcome: inactive
SK-OV-3 ovarian
  outcome: inactive
SN12C renal
  outcome: inactive
SNB-19 CNS
  outcome: inactive
SNB-75 CNS
  outcome: inactive
SNB-78 CNS
  outcome: inactive
SR leukemia
  outcome: inactive
SW-620 colon
  outcome: inactive
U251 CNS
  outcome: inactive
UACC-257 melanoma
  outcome: inactive
UACC-62 melanoma
  outcome: inactive
UO-31 renal
  outcome: inactive
